The values that follow come from paper PMC12797002, “Hydrophobic residues in the α‐synuclein NAC domain drive seed‐competent fibril formation and are targeted by peptide inhibitors” (The Febs Journal, 2025).

A short description of data set [1]: Self-aggregation of inhibitor peptides alone (ThT, SEM). It counts as physicochemical. The note with it: Fig. S8. The procedure:
NAC peptides stored at −80 °C were thawed on ice and centrifuged at 12 100 g for 45 s. A reaction mixture (40 μL) was prepared on ice containing 100 μM NAC peptide, either alone or in combination with inhibitor peptides at a 1 : 2 molar ratio, along with 15 μM ThT (Sigma‐Aldrich, Burlington, MA, USA; Cat. # T3516‐5G) in 1× PBS (pH 7.2). This mixture was then dispensed into a clear‐bottom, black 384‐well plate (Revvity, Waltham, MA, USA), and the plate was sealed with a TopSealA‐PLUS (Revvity) to prevent evaporation.
The aggregation kinetics was monitored on an EnSpire Multimode Plate Reader (Revvity) at 37 °C with a constant agitation of 1000 rpm. To prevent condensation in the assay plate, the upper heater temperature in the plate reader was set to 2 °C higher than the lower heater temperature. ThT (Ex: 460–490 nm, Em: 500–550 nm) fluorescence readings were recorded every 5–10 min for 48–72 h. The aggregation lag time was determined by fitting a Boltzmann sigmoidal equation to the fluorescence data in OriginPro 2024 (OriginLab Corporation, Northampton, MA, USA).
NAC peptides aggregated in the absence or presence of inhibitor peptides, as described in the section Aggregation Kinetics, were collected and pooled into Eppendorf tubes. Approximately 2 μL of each sample was drop‐cast onto a silicon wafer and air‐dried at room temperature. […]

Another data set concerns recombinant αSyn. Put plainly: Effect of inhibitor peptides on αSyn aggregation (ThT, TEM, dot blot, Coomassie gel). It counts as biochemical, human. The procedure: For monitoring the effect of inhibitor peptides on αSyn aggregation, recombinant αSyn was incubated with PD, PL, PB, or scrambled peptides at a 1 : 2 molar ratio (100–150 μM αSyn:200–300 μM inhibitor) in the presence of 50 μM ThT. The incubation was performed at 37 °C with constant agitation at 850 rpm in a Turbo Thermo Shaker (TMS‐200; Allsheng, Hangzhou, China). The formation of amyloid fibrils was monitored by measuring ThT fluorescence over 72 h, as described previously.
To fractionate aggregated samples (recombinant αSyn or NAC peptides), 20% of the aggregation mixture was set aside as the ‘total fraction’. The remaining sample was centrifuged at room temperature at 65 000 g for 1 h. The supernatant was collected as the ‘soluble fraction’ and transferred to a fresh tube. The pellet was resuspended in 80 μL of 1× PBS (pH 7.2) and centrifuged at 65 000 g for 1 h. After removing the supernatant, the pellet was resuspended in 8 μL of 1× PBS (pH 7.2), yielding a 10× concentrated ‘insoluble fraction’.
Samples were dropped on glow‐discharged carbon‐coated copper grids and negatively stained with 2% uranyl acetate. Electron microscopy was performed on a Tecnai G2 F20 microscope (FEI Technologies, Hillsboro, OR, USA) with an Eagle 4K CCD camera (FEI Technologies) or a CM100 TWIN Transmission Electron Microscope (Philips, Amsterdam, Netherlands) equipped with a side‐mounted Veleta Camera (Olympus, Tokyo, Japan) and processed in the iTEM software suite (Olympus). After bringing the images to 2048 × 2048 pixels, the pixel size at the specimen level was 1.14 nm. Approximately 20 micrographs of each specimen were recorded and evaluated.
The samples were mixed with 2× Laemmli buffer [62.5 mM Tris/HCl (pH 6.8), 25% (w/v) glycerol, 2% SDS, and 0.01% Bromophenol Blue, supplemented with 5% (v/v) 2‐mercaptoethanol] and boiled at 95 °C for 5 min. The samples were then subjected to electrophoresis using Mini‐PROTEAN TGX 4–20% Precast gels (Bio‐Rad, Hercules, CA, USA, Cat. # 4561095) in Tris/glycine/SDS running buffer (Bio‐Rad). […]

In data set [2] the test system is HEK293T αSyn (A53T) CFP/YFP biosensor cells. In words: Cell seeding assay (CFP/YFP inclusions, FRET flow cytometry). Format: cell-based. The conditions noted are these: αSyn : peptide 1 : 2 for 72 h, 1 μM total or insoluble fraction, TurboFect, n = 3. The text has this:
HEK293T αSyn (A53T) CFP/YFP biosensor cells (HEK293T parental line, RRID:CVCL_0063) were kindly provided by Dr. Marc Diamond from the University of Texas Southwestern Medical Center (Dallas, TX, USA). The cells were not further authenticated but were routinely tested and confirmed to be mycoplasma‐free using PCR‐based assays. The cells were maintained in complete growth media consisting of 88% Dulbecco's modified Eagle's growth medium (Lonza, Walkersville, MD, USA, Cat. # 12‐604F), supplemented with 10% (v/v) fetal bovine serum (Thermo Fisher Scientific Inc., Cat. # A5256701), 10 mM HEPES (Serana Europe GmbH, Brandenburg, Germany; Cat # BSL‐001‐100ML), 1% (v/v) GlutaMAX™ Supplement (Thermo Fisher Scientific Inc., Cat. # 35050061), and 1% (v/v) Penicillin–Streptomycin Solution (Thermo Fisher Scientific Inc., Cat. # 15140130). Cells were maintained at 37 °C in a humidified incubator with 5% CO2/atmospheric air. […]
Cells were imaged using a high‐content imaging system (Cell Voyager 7000S; Yokogawa, Tokyo, Japan) with a 20× objective. CFP/YFP inclusions of αSyn (A53T) were detected using a 488 nm laser line (Ex = 460–490 nm, Em = 500–550 nm), while Hoechst‐33 342‐stained nuclei were detected using the 405 nm laser line (Ex = 360–400 nm, Em = 410–480 nm). […]

With VSRKIVRRRRR [PS], the “self-aggregation (ThT kinetics of peptide alone)” value in data set [1] was “no signs of self‐aggregation”. In addition, the “final ThT reading normalized to control (amyloid fibrils formed)” value in the data set on recombinant αSyn (αSyn : peptide 1 : 2, end of aggregation assay, n = 3 (PS n = 2)) is listed as “increase in αSyn aggregation”. Moreover, the “αSyn fibrils by TEM” value in the data set with recombinant αSyn (αSyn aggregated with peptide at 1 : 2) is on record as “fibril morphology was unaffected”.
As to KISVRVRRRRRR [PD], in data set [2], the “CFP/YFP inclusions in cells transduced with αSyn fibrils formed with inhibitor” value was “reduced inclusions”. For the same sequence, in the data set on recombinant αSyn (αSyn : peptide 1 : 2 molar ratio (100–150 μM : 200–300 μM), 50 μM ThT, 37 °C, 850 rpm, 72 h, n = 3), the “inhibition of αSyn aggregation (ThT kinetics)” value is recorded as “highly effective in inhibiting αSyn aggregation”.
